Eleven compounds from patent US20150246025A1, “2-PHENYL-5-HETEROCYCLYL-TETRAHYDRO-2H-PYRAN-3-AMINE COMPOUNDS FOR USE IN THE TREATMENT OF DIABETES AND ITS ASSOCIATED DISORDERS” (CADILA HEALTHCARE LIMITED, priority 2012, published 2015) can be followed below.

The structures appear in SMILES notation. Some results are limits rather than exact numbers.

One data set concerns C57BL/6J mice. Nature of the data set: In vivo antihyperglycaemic/antidiabetic activity (OGTT), acute single dose 120-min time-course. The following applies: Mus musculus, 2 h; male C57BL/6J mice, acute single dose 0,3 mg/kg po, 120-min time-course, n = 6, Mean ± SEM; read-out: In vivo OGTT C57; % Glucose change. Here is the method: Acute single dose 120-min time-course experiments were carried out in male C57BL/6J mice, age 8-12 weeks, bred in-house. Animals were housed in groups of 6 animals per cage, for a week, in order to habituate them to vivarium conditions (25±4° C., 60-65% relative humidity, 12: 12 h light: dark cycle, with lights on at 7.30 am). All the animal experiments were carried out according to the internationally valid guidelines following approval by the ‘Zydus Research Center animal ethical committee’.
The in-vivo glucose lowering properties of the test compounds were evaluated in C57BL/6J (mild hyperglycemic) animal models as described below. Two days prior to the study, the animals were randomized and divided into groups (n=6), based upon their fed glucose levels. On the day of experiment, food was withdrawn from all the cages, water was given ad-libitum and were kept for overnight fasting. Vehicle (normal saline)/test compounds were administered orally, on a body weight basis. Soon after the 0 min. blood collection from each animal, the subsequent blood collections were done at 30, 60 and 120 or upto 240 min., via retro-orbital route, under light ether anesthesia (Diabetes Obesity Metabolism, 7, 307, 2005; Diabetes, 52, 751, 2003).
Blood samples were centrifuged and the separated serum was immediately subjected for the glucose estimation. Serum for insulin estimation was stored at −70° C. until used for the insulin estimation. The glucose estimation was carried out with DPEC-GOD/POD method (Ranbaxy Fine Chemicals Limited, Diagnostic division, India), using Spectramax-190, in 96-microwell plate reader (Molecular devices Corporation, Sunnyvale, Calif.). […] The AUC and BCAUC obtained from graphs were analyzed for one way ANOVA, followed by Dunnett's post test, using Graph Pad prism software.

A short description of data set [1]: Pharmacokinetic study in Wistar rats. Format: in vivo. Particulars: rat, plasma, po; male wistar rats, 2 mg/kg orally, n = 6, Mean ± SD. As for the experimental part: Pharmacokinetic Study in Wistar Rats
The pharmacokinetic parameters of test compounds were determined in male wistar rats (n=6). Briefly, test compounds were administered orally/iv on a body weight basis to overnight fasted rats. Serial blood samples were collected in microcentrifuge tubes containing EDTA at pre-dose and post-dose after compounds administration, over a period of 168 hrs. Blood was collected at various time points and centrifuged at 4° C. The obtained plasma was frozen, stored at −70° C. and the concentrations of compounds in plasma were determined by the LC-MS/MS (Shimadzu LC 1 OAD, USA), using YMC hydrosphere C18 (2.0×50 mm, 3 μm) column (YMC Inc., USA). The pharmacokinetic parameters, such as Tmax, t1/2, AUC and % F were calculated using a non-compartmental model of WinNonlin software version 5.2.1.

For a further data set, the target named is T1, DPP-IV enzyme (Homo sapiens, UniProt P27487).
T1 construct: soluble human proteins (DPP-IV enzyme) produced in a baculovirus expression system; made in house; host or cells: baculovirus expression system (Life Technologies)
T1 sequence (P27487 39-766 limits assumed): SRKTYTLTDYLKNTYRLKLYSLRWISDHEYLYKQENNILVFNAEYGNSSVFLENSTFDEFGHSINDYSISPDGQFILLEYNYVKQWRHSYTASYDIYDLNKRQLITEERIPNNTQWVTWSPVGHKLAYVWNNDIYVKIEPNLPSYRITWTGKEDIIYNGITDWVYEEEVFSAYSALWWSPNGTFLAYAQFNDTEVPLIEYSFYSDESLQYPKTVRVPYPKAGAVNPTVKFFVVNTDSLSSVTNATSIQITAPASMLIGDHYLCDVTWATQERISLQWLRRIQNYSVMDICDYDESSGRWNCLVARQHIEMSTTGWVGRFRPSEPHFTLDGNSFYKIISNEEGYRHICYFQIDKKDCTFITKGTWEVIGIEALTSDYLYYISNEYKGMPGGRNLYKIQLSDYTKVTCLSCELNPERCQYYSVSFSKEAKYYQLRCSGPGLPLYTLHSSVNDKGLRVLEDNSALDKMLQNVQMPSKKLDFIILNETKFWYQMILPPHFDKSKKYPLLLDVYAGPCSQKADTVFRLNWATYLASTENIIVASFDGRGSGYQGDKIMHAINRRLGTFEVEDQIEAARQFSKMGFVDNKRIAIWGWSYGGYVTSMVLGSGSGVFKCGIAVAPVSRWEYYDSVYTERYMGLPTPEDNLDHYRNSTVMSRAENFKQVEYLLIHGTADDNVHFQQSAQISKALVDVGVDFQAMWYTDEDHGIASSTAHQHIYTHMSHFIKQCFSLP
Nature of the data set: In vitro DPP-IV inhibitory activity using enzymatic (fluorescence-based) assay. Format: biochemical. Particulars: soluble human DPP-IV, H-Gly-Pro-AMC 200 μM, pH 7.8, 25° C., 30 min; read-out: % In-vitro DPPIV Inhibition IC50. Here is the method:
In Vitro DPP-IV Inhibitory Activity Using Enzymatic Assay:
In vitro enzyme (DPP-IV) inhibitory activity was determined using fluorescence-based assay (Anal. Biochem., 200, 352, 1992). The Gly-Pro-AMC was used as a substrate (which is cleaved by the enzymes to release the fluorescent AMC) and soluble human proteins (DPP-IV enzyme) produced in a baculovirus expression system (Life Technologies) was used as the enzyme source. The H-Gly-Pro-AMC (200 μM) was incubated with DPP-IV enzyme in the presence of various concentrations (30 & 100 nM) of test compounds. Reaction was carried out at pH 7.8 (HEPES buffer 25 mM containing 1.0% BSA, 140 mM NaCl, 16 mM MgCl2, 2.8% DMSO) in a total volume of 100 μl at 25° C. for 30 min., in the dark. Reaction was terminated with acetic acid (25 μl of 25% solution). Activity (fluorescence) was measured using Spectra Max fluorometer (Molecular Devices, Sunnyvale Calif.) by exciting at 380 nm and emission at 460 nm.

In general, AUC refers to concentration integrated over time. One may read the Cmax as the maximum level reached in the sampled fluid or tissue. What is called half-life is the time needed for the level to fall by half in the phase considered. Higher therefore signals slow loss. What is called IC50 is the point on the concentration scale where inhibition reaches its midpoint.

Consider `CS(=O)(=O)N1CC2CN([C@H]3CO[C@H](c4cc(F)ccc4F)[C@@H](N)C3)CC2C1` (stereo partly drawn) [Compound 1, (2R,3S,5R)-2-(2,5-difluorophenyl)-5-(5-(methylsulfonyl)-hexahydro-pyrrolo[3,4-c]pyrrol-2(1H)-yl)tetrahydro-2H-pyran-3-amine], for which the change in vivo at 0.3 mg/kg in the data set with C57BL/6J mice was -22.5 ± 4.5%. In data set [1], this compound showed an exposure (AUC) of 888 ± 129 ng·h/mL, a peak concentration (Cmax) of 148 ± 34.2 ng/mL and a half-life of 33.3 ± 2.07 h. For the same compound, the concentration for half-maximal inhibition (IC50) on DPP-IV enzyme was under 30 nM.

For the compound `N[C@H]1C[C@@H](N2CC3COCC3C2)CO[C@@H]1c1cc(F)ccc1F` (stereo partly drawn) [Compound 3, (2R,3S,5R)-2-(2,5-difluorophenyl)-5-(tetrahydro-1H-furo[3,4-c]pyrrol-5(3H)-yl)tetrahydro-2H-pyran-3-amine], the change in vivo at 0.3 mg/kg with C57BL/6J mice is -27.6 ± 1.6%. In data set [1], this compound had an AUC of 2970 ± 1070 ng·h/mL, a maximum concentration (Cmax) of 301 ± 44.3 ng/mL and a half-life of 48.2 ± 11.1 h. For the same compound, the IC50 on DPP-IV enzyme is under 100 nM.

On to `CS(=O)(=O)N1CC2=C(CN([C@H]3CO[C@H](c4cc(F)ccc4F)[C@@H](N)C3)C2)C1` [Compound 8, (2R,3S,5R)-2-(2,5-difluorophenyl)-5-(5-(methylsulfonyl)-5,6-dihydropyrrolo[3,4-c]pyrrol-2(1H,3H,4H)-yl)tetrahydro-2H-pyran-3-amine], for which, in the data set with C57BL/6J mice, the change in vivo at 0.3 mg/kg is -49.1 ± 3.6%. Also, in data set [1], the AUC is 4750 ± 647 ng·h/mL, the maximum concentration (Cmax) was found to be 459 ± 52.2 ng/mL and the half-life was 59.5 ± 6.44 h. Also, the IC50 at DPP-IV enzyme was under 10 nM.

Regarding `N[C@H]1C[C@@H](N2CC3=C(C2)CS(=O)(=O)C3)CO[C@@H]1c1cc(F)ccc1F` [Compound 17, 5-((3R,5S,6R)-5-amino-6-(2,5-difluorophenyl)tetrahydro-2H-pyran-3-yl)-3,4,5,6-tetrahydro-1H-thieno[3,4-c]pyrrole 2,2-dioxide], in the data set with C57BL/6J mice, the change in vivo at 0.3 mg/kg is -27.3 ± 3.3%. In data set [1], this compound had an AUC of 1550 ± 114 ng·h/mL, a peak concentration (Cmax) of 419 ± 45.5 ng/mL and a half-life of 32.5 ± 5.91 h.

As to `N[C@H]1C[C@@H](N2CC3CS(=O)(=O)CC3C2)CO[C@@H]1c1cc(F)ccc1F` (stereo partly drawn) [Compound 43, 5-((3R,5S,6R)-5-amino-6-(2,5-difluorophenyl)tetrahydro-2H-pyran-3-yl)hexahydro-1H-thieno[3,4-c]pyrrole 2,2-dioxide], in the data set with C57BL/6J mice, the change in vivo at 0.3 mg/kg was -15.5 ± 3.6%. In addition, the concentration for half-maximal inhibition (IC50) on DPP-IV enzyme was under 30 nM.

As for `N[C@H]1C[C@@H](N2CC3=C(CNC3)C2)CO[C@@H]1c1cc(F)ccc1F` [Compound 44, (2R,3S,5R)-2-(2,5-difluorophenyl)-5-(5,6-dihydropyrrolo[3,4-c]pyrrol-2(1H,3H,4H)-yl)tetrahydro-2H-pyran-3-amine], the change in vivo at 0.3 mg/kg in the data set on C57BL/6J mice was -12.5 ± 1.5%. The IC50 at DPP-IV enzyme was under 30 nM.

Take `N[C@H]1C[C@@H](N2CC3=C(CN(C(=O)Nc4ccccc4)C3)C2)CO[C@@H]1c1cc(F)ccc1F` [Compound 45, 5-((3R,5S,6R)-5-amino-6-(2,5-difluorophenyl)tetrahydro-2H-pyran-3-yl)-N-phenyl-3,4,5,6-tetrahydropyrrolo[3,4-c]pyrrole-2(1H)-carboxamide]: the change in vivo at 0.3 mg/kg in the data set with C57BL/6J mice was -34.9 ± 4.4%. The IC50 at DPP-IV enzyme is under 10 nM.

On to `CC(=O)N[C@H]1C[C@@H](N2CC3=C(C2)CN(S(C)(=O)=O)C3)CO[C@@H]1c1cc(F)ccc1F` [Compound 46, N-((2R,3S,5R)-2-(2,5-difluorophenyl)-5-(5-(methylsulfonyl)-5,6-dihydropyrrolo[3,4-c]pyrrol-2(1H,3H,4H)-yl)tetrahydro-2H-pyran-3-yl)acetamide], for which the change in vivo at 0.3 mg/kg in the data set on C57BL/6J mice was -9.3 ± 3.8%. The IC50 at DPP-IV enzyme is under 100 nM.

With `CC(=O)N[C@H]1C[C@@H](N2CC3=C(CN(C(C)=O)C3)C2)CO[C@@H]1c1cc(F)ccc1F` [Compound 47, N-((2R,3S,5R)-5-(5-acetyl-5,6-dihydropyrrolo[3,4-c]pyrrol-2(1H,3H,4H)-yl)-2-(2,5-difluorophenyl)tetrahydro-2H-pyran-3-yl)acetamide], the change in vivo at 0.3 mg/kg in the data set with C57BL/6J mice was 8.6 ± 5.9%. In addition, the half-maximal inhibitory concentration (IC50) at DPP-IV enzyme is under 100 nM.

Consider `N[C@H]1C[C@@H](N2CC3=C(CN(C=O)C3)C2)CO[C@@H]1c1cc(F)ccc1F` [Compound 48, 5-((3R,5S,6R)-5-amino-6-(2,5-difluorophenyl)tetrahydro-2H-pyran-3-yl)-3,4,5,6-tetrahydropyrrolo[3,4-c]pyrrole-2(1H)-carbaldehyde], for which the change in vivo at 0.3 mg/kg in the data set on C57BL/6J mice was -38.5 ± 1.5%. In addition, the IC50 on DPP-IV enzyme is under 10 nM.

Turning to `N[C@H]1C[C@@H](N2CC3=C(CN(C(=O)C(F)(F)F)C3)C2)CO[C@@H]1c1cc(F)ccc1F` [Compound 50, 1-(5-((3R,5S,6R)-5-amino-6-(2,5-difluorophenyl)tetrahydro-2H-pyran-3-yl)-5,6-dihydropyrrolo[3,4-c]pyrrol-2(1H,3H,4H)-yl)-2,2,2-trifluoroethanone], the change in vivo at 0.3 mg/kg in the data set with C57BL/6J mice was -30 ± 1.4%. In addition, the 50% inhibitory concentration (IC50) at DPP-IV enzyme was under 10 nM.
